According to US20030096379A1, “Method for producing tryptamine derivatives” (priority 2001, published 2003):
Marks after values point to notes of the source that are not given here.

Key:
[1] = molecular target: T1, pig kidney aromatic amino acid decarboxylase (pkAAAD) (Sus scrofa, UniProt P80041); experiment: Substrate screen for tryptophan decarboxylation, pkAAAD; format: biochemical; design: key: +: a clear ninhydrin-positive spot at the Rf of standard tryptophan derivatives after 16-65 h; (+): a weak spot in the product region; −: no product observed; NR: experiment not run; conditions: tryptophan derivative, PLP, pH 7.5, 37° C.
T1 construct: Frozen tissue was partially thawed in lysis buffer, then it was extracted and partially purified; from tissue; host or cells: pig kidney
T1 sequence (P80041 1-486): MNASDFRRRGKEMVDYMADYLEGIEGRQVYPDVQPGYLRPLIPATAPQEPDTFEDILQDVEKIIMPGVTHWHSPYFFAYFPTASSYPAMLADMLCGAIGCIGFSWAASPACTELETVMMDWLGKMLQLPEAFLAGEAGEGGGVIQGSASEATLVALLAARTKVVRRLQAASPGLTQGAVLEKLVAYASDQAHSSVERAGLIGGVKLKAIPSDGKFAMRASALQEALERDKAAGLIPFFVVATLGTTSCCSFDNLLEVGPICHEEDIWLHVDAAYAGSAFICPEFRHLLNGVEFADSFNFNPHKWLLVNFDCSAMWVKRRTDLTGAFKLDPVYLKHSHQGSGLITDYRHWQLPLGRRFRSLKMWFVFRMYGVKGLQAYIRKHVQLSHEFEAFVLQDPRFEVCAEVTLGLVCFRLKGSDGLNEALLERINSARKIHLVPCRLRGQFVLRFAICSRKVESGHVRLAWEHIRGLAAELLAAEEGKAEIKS

[2] = molecular target: T2, tryptophan decarboxylase TDC2 (Camptotheca acuminata, UniProt P93083); experiment: Substrate screen for tryptophan decarboxylation, TDC2; format: biochemical, C. accuminata; design: key: +: a clear ninhydrin-positive spot at the Rf of standard tryptophan derivatives after 16-65 h; (+): a weak spot in the product region; −: no product observed; NR: experiment not run; conditions: tryptophan derivative, PLP, pH 7.5, 37° C.
T2 construct: made in house; host or cells: E. coli DH5α (pKK233 plasmid from C. Nessler)
T2 sequence (P93083 1-498): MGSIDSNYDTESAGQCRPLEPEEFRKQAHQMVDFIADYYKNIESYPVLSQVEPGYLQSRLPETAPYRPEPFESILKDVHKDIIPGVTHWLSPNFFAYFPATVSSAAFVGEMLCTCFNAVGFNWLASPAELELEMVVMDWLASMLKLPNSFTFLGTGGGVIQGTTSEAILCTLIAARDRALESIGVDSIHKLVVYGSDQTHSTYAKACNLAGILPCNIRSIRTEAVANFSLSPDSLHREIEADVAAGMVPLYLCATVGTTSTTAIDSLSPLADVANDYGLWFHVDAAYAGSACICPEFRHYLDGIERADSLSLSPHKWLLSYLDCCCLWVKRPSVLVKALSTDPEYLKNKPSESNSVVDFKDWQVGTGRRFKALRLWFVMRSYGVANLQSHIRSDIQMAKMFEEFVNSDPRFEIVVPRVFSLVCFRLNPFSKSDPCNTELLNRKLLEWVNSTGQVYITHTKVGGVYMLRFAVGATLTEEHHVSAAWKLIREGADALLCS
Experimental: (§1) A mixture containing 1 μmole of the tryptophan derivative, 0.05 μmole of PLP and 50 μmol of L-serine in 40 mM pH 7.5 KPi buffer was warmed to 37° C., then enzyme solution was added to give a final volume of 1 mL. Aliquots (100 HL) were quenched at intervals and were evaporated in a Savant Speed-vac as in Example 6. For TLC analysis, CH2Cl2/EtOH/H2O/HOAc 49:49:1:1 was used as the solvent. The plates were visualized with short-wave UV light and ninhydrin as in Example 6.
(§2) HPLC techniques were used to monitor the decarboxylation of substituted tryptophans. Mass spectral analysis of the collected HPLC peaks was used to confirm the identity of several tryptamine derivatives, as shown in Table 5.

[3] = molecular target: T3, synAAAD (synthetic gene based on pkAAAD protein sequence) (Sus scrofa, UniProt P80041); experiment: Substrate screen for tryptophan decarboxylation, SynAAAD; format: biochemical; design: key: +: a clear ninhydrin-positive spot at the Rf of standard tryptophan derivatives after 16-65 h; (+): a weak spot in the product region; −: no product observed; NR: experiment not run; conditions: tryptophan derivative, PLP, pH 7.5, 37° C.
T3 construct: made in house; host or cells: E. coli (pET-15 vector)
T3 sequence (P80041 1-486): T1 sequence (P80041 1-486)
Experimental: as §1, §2

[4] = molecular target: T4, tryptophan decarboxylase TDC1 (Camptotheca acuminata, UniProt P93082); experiment: Substrate screen for tryptophan decarboxylation, TDC1; format: biochemical, C. accuminata; design: key: +: a clear ninhydrin-positive spot at the Rf of standard tryptophan derivatives after 16-65 h; (+): a weak spot in the product region; −: no product observed; NR: experiment not run; conditions: tryptophan derivative, PLP, pH 7.5, 37° C.
T4 construct: made in house; host or cells: E. coli DH5α (pKK233 plasmid from C. Nessler)
T4 sequence (P93082 1-502): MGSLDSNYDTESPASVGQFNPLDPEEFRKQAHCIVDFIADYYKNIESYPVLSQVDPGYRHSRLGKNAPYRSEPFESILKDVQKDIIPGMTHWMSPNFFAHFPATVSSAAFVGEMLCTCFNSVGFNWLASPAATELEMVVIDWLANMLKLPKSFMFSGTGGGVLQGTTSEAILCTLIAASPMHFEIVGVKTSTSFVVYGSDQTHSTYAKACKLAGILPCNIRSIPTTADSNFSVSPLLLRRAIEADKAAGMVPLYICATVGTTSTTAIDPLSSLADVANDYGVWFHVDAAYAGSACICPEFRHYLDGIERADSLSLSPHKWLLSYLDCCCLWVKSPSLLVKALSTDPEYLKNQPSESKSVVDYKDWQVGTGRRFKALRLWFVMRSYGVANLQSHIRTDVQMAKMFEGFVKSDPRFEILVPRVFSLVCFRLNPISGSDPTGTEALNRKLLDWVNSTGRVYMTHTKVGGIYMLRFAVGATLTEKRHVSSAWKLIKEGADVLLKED
Experimental: as §1, §2

tryptophanase (TnA) = molecular target: T5, tryptophanase (TnA) (Escherichia coli, UniProt P0A853); format: biochemical, E. coli; design: key: +: a clear ninhydrin-positive spot at the Rf of standard tryptophan derivatives after 16-65 h; (+): a weak spot in the product region; −: no product observed; NR: experiment not run; conditions: indole derivative + L-serine + PLP, 37° C., 16-65 h, ninhydrin
T5 construct: made in house; host or cells: E. coli LMG194 (pBAD) or BL-21 (pET)
T5 sequence (P0A853 whole entry): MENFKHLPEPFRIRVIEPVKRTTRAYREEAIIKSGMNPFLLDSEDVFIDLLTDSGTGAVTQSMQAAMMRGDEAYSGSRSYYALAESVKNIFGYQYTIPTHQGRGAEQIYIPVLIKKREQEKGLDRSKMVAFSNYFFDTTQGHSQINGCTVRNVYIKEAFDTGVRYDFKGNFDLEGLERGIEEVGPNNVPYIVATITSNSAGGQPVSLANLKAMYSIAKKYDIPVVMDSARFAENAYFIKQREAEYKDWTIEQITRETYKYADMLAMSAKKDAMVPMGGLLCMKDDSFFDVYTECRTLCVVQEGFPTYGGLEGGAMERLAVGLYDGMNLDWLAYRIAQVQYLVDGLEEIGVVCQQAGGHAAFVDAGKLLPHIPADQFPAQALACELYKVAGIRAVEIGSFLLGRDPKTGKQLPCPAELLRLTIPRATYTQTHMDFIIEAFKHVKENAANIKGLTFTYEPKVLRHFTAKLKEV
Experimental: (§3) A mixture containing 2 μmole of the indole derivative, 0.05 μmole of PLP and 50 μmol of L-serine in 40 mM KPi buffer in 8% v/v ethanol water, pH 7.5, was warmed to 37° C., then enzyme solution was added to give a final volume of 1 mL. Aliquots (100 μL) were quenched at intervals of 2, 6, and 24 hours or more in microcentrifuge capsules containing 25 μL of 6 M HCl. The quenched samples were evaporated in a Savant Speed-vac. The residues were resuspended in methanol/water (1:1, 50 μL) and analyzed by TLC on Silica gel GF254 plates alongside tryptophan and tryptamine standards, eluting with CH2Cl2/EtOH/H2O/HOAc 77:20:2:1. Products were visualized first by using short-wave UV light, then with ninhydrin spray reagent (1/1/98 w/v/v ninhydrin/HOAc/EtOH) followed by heating.
(§4) Substituted indoles were incubated with L-serine, PLP and enzyme (TrpBA or TnA) prior to TLC analysis as generally described in Example 6. Serine, which can be used instead of pyruvate and ammonia for tryptophan synthesis with TnA, was employed as the 3-carbon acid because pyruvate tended to obscure the tryptophan product spots when plates were visualized with ninhydrin. TnA-catalyzed formation of tryptophan was also faster when serine was the 3-carbon donor. Reaction rates for several substrates were also estimated by HPLC.
(§5) In Table 4, “+” indicates a clear ninhydrin-positive spot at the Rf of standard tryptophan derivatives after 16-65 h; “(+)” indicates a weak spot in the product region; “−” means no product observed, “NR” means experiment not run. ESMS=electrospray mass spectrometry. Unless otherwise indicated, the mass value given represents the singly-protonated molecular ion (M+1).

TrpBA = molecular target: T6, TrpBA (Escherichia coli, UniProt P0A879); experiment: Relative rates of tryptophan derivative synthesis by HPLC, TrpBA; format: biochemical, E. coli; conditions: initial rate estimated by HPLC, indole = 100%, L-serine
T6 construct: made in house; host or cells: E. coli LMG194 (pBAD) or BL-21 (pET)
T6 sequence (P0A879 whole entry): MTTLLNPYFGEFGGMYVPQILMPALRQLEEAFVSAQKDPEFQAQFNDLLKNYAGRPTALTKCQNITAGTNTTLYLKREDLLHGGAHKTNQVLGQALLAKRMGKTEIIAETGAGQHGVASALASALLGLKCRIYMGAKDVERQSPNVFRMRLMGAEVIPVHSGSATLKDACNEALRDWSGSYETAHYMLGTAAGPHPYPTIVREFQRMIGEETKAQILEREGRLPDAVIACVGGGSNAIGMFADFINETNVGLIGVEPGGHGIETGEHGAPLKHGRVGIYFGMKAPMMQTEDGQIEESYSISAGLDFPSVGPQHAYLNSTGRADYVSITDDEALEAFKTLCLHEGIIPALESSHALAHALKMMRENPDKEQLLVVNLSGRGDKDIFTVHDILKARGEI
T6 sequence (P0A877 whole entry, further chain): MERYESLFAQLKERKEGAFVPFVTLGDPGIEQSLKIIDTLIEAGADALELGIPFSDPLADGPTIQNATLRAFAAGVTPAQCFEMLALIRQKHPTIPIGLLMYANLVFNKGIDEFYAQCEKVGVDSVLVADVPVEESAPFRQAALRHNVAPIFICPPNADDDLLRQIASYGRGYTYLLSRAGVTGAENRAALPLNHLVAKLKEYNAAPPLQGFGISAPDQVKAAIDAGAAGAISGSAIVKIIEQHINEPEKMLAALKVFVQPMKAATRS
Experimental: Reaction mixtures were prepared as in Example 6 and were incubated at 37° C. Aliquots (100 μL) were removed and quenched by addition of to 300 μL of 0.5 M sodium citrate, pH 3.0 in 10% v/v acetonitrile/water in 2 ml microcentrifuge tubes. Following centrifugation for 10 min at 13,000×g, the supernatants were passed through 0.45μ membrane filters prior to HPLC analysis of 20 μL of filtrate.
TnA reactions were run with L-serine as the 3-carbon substrate.

[5] = molecular target: T7, E. coli DH5α tryptophan synthase (TrpBA) (Escherichia coli, UniProt P0A879); format: biochemical; design: key: +: a clear ninhydrin-positive spot at the Rf of standard tryptophan derivatives after 16-65 h; (+): a weak spot in the product region; −: no product observed; NR: experiment not run; conditions: indole derivative + L-serine + PLP, 37° C., 16-65 h, ninhydrin
T7 construct: made in house; host or cells: E. coli LMG194 (pBAD) or BL-21 (pET)
T7 sequence (P0A879 whole entry): as the sequence (P0A879 whole entry) above
T7 sequence (P0A877 whole entry, further chain): as the sequence (P0A877 whole entry, further chain) above
Experimental: as §3, §4, §5

TrpBA and TDC1 = experiment: Coupled enzyme synthesis monitored by HPLC; format: biochemical; conditions: L-serine, PLP, pH 8.5 phosphate buffer, 37° C.
Experimental: To a solution containing L-serine (25 μmol), pyridoxal phosphate (0.05 μmol) and TrpBA (0.02 to 1.5 units, depending on the substrate), TDC1 (0.2 mL 0.6 units) and KPi buffer (0.05 mmol, pH 7.5) in a volume of 0.8 mL were added […] of 5 mM indole derivative in 20% v/v ethanol/water. The mixture was incubated at 37° C. and aliquots were quenched and analyzed as described for Example 8. In cases where tryptamine and/or tryptophan standards were not available, peaks were collected for mass spectral analysis. Electrospray mass spectral analyses were performed.
Mixtures containing indole, L-serine, PLP and TDC1 were incubated in pH 8.5 phosphate buffer, analyzing aliquots by HPLC, as described in Example 12.
The procedure used in Example 24 was carried out by substituting indole with 2-methylindole, 4-hydroxymethylindole, 5-methoxy-, 5-hydroxymethyl-, 5-methoxycarbonyl, and 5,6-dimethoxyindole.

Cc1ccc2[nH]cc(CC(N)C(=O)O)c2c1 (racemic) [DL-5-methyl-trp]
pkAAAD (decarboxylation substrate screen) [1]: − | TDC2 (decarboxylation substrate screen) [2]: + | SynAAAD (decarboxylation substrate screen) [3]: − | TDC1 (decarboxylation substrate screen) [4]: +

NC(Cc1c[nH]c2cccc(F)c12)C(=O)O (racemic) [DL-4-fluoro-trp]
pkAAAD (decarboxylation substrate screen) [1]: + | TDC2 (decarboxylation substrate screen) [2]: + | SynAAAD (decarboxylation substrate screen) [3]: (+) | TDC1 (decarboxylation substrate screen) [4]: +

COc1ccc2[nH]ccc2c1 [5-methoxy-]
TnA (tryptophan product spot, TLC analysis) (tryptophanase (TnA)): + | Relative rate (TrpBA) (TrpBA): 19.0% | TrpBA (tryptophan product spot, TLC analysis) [5]: + | formation of tryptophan derivative and tryptamine (HPLC peaks) (TrpBA and TDC1): a second peak representing formation of tryptamine

Cc1ccc2[nH]ccc2c1 [5CH3]
Relative rate (TrpBA) (TrpBA): 0.55%

COC(=O)Nc1ccc2[nH]cc(C[C@H](N)C(=O)O)c2c1 [L-5-(methoxycarbonyl)-amino-trp, 5-(Methoxycarbonyl)amino-L-tryptophan]
pkAAAD (decarboxylation substrate screen) [1]: − | TDC2 (decarboxylation substrate screen) [2]: + | SynAAAD (decarboxylation substrate screen) [3]: + | TDC1 (decarboxylation substrate screen) [4]: +

NC(Cc1c[nH]c2ccc(F)cc12)C(=O)O (racemic) [DL-5-fluoro-trp]
pkAAAD (decarboxylation substrate screen) [1]: − | TDC2 (decarboxylation substrate screen) [2]: (+) | SynAAAD (decarboxylation substrate screen) [3]: (+) | TDC1 (decarboxylation substrate screen) [4]: +

NC(Cc1c[nH]c2cc(F)ccc12)C(=O)O (racemic) [DL-6-fluoro-trp]
pkAAAD (decarboxylation substrate screen) [1]: − | TDC2 (decarboxylation substrate screen) [2]: − | SynAAAD (decarboxylation substrate screen) [3]: − | TDC1 (decarboxylation substrate screen) [4]: −

N[C@@H](Cc1c[nH]c2cccc(CO)c12)C(=O)O [L-4-(hydroxymethyl)-trp, 4-(Hydroxymethyl)-L-tryptophan]
pkAAAD (decarboxylation substrate screen) [1]: (+) | TDC2 (decarboxylation substrate screen) [2]: + | SynAAAD (decarboxylation substrate screen) [3]: + | TDC1 (decarboxylation substrate screen) [4]: +

Cc1cccc2[nH]cc(CC(N)C(=O)O)c12 (racemic) [DL-4-methyl-trp]
pkAAAD (decarboxylation substrate screen) [1]: − | TDC2 (decarboxylation substrate screen) [2]: + | SynAAAD (decarboxylation substrate screen) [3]: + | TDC1 (decarboxylation substrate screen) [4]: +

5-(Methoxycarbonylamino)indole [5-(methoxycarbonyl)amino-]
formation of tryptophan derivative and tryptamine (HPLC peaks) (TrpBA and TDC1): a second peak representing formation of tryptamine

Cc1cc2ccccc2[nH]1 [2-methyl-, 2-methylindole]
TnA (tryptophan product spot, TLC analysis) (tryptophanase (TnA)): + | Relative rate (TrpBA) (TrpBA): 20.6* % | TrpBA (tryptophan product spot, TLC analysis) [5]: − | formation of tryptophan derivative and tryptamine (HPLC peaks) (TrpBA and TDC1): a second peak representing formation of tryptamine

Cc1ccc2c(CC(N)C(=O)O)c[nH]c2c1 (racemic) [DL-6-methyl-trp]
pkAAAD (decarboxylation substrate screen) [1]: − | TDC2 (decarboxylation substrate screen) [2]: + | SynAAAD (decarboxylation substrate screen) [3]: (+) | TDC1 (decarboxylation substrate screen) [4]: +

Cc1cccc2c(CC(N)C(=O)O)c[nH]c12 (racemic) [DL-7-methyl-trp]
pkAAAD (decarboxylation substrate screen) [1]: − | TDC2 (decarboxylation substrate screen) [2]: + | SynAAAD (decarboxylation substrate screen) [3]: (+) | TDC1 (decarboxylation substrate screen) [4]: +

N[C@@H](Cc1c[nH]c2ccc(O)cc12)C(=O)O [L-5-hydroxy-trp, L-5-hydroxytryptophan, reference compound]
pkAAAD (decarboxylation substrate screen) [1]: + | SynAAAD (decarboxylation substrate screen) [3]: + | TDC1 (decarboxylation substrate screen) [4]: +
